Test results as given in PMC3165048 (Chemistry & biology, 2010).

Test system: M. tuberculosis knock-in strains overexpressing MtMetAP1a or MtMetAP1c, wild-type and control strains
Type: cell-based, M. tuberculosis CDC1551

O=C1C(Cl)=C(Cl)C(=O)c2ccccc21 [Compound 4, 2,3-dichloro-1,4-naphthoquinone]
Growth of MtMetAP1a knock-in strain in the presence of inhibitor: gained resistance
Growth of MtMetAP1c knock-in strain in the presence of inhibitor: gained resistance
Growth of wild-type and control M. tuberculosis strains in the presence of inhibitor: inhibited
